According to patent publication US11679140B2, “Prevention and/or treatment of hearing loss or impairment” (INSTITUT PASTEUR, priority 2015, dated 2023):
“Also recorded” adds a separate entry of the source.

Assays:
[1] = system: mouse embryonic fibroblasts; test: H2O2-induced peroxisome proliferation in mouse embryonic fibroblasts; type: cell-based
Protocol: Fibroblasts were isolated from mouse embryos at embryonic day 13.5 and cultured as described by Xu (2005). The cells were incubated in DMEM (Gibco) supplemented with 0.1 mM β-mercaptoethanol, and 0.5 mM H2O2 for 4 hours at 37° C., under normoxic conditions (95% air). The culture medium was then replaced with H2O2-free medium. Cell viability was checked 18 hours after H2O2 treatment, by measuring mitochondrial reductase activity with the MTT (3-(4,5-dimethylthiazol-2-yl)-2,5-diphenyl tetrazolium bromide) (Sigma M2128) assay. A polyclonal antibody against peroxisome membrane protein 70 (PMP70, Abcam ab3421) was used to label peroxisomes.

[2] = system: Pjvk−/− mice (OHC function); test: Distortion-product otoacoustic emissions (DPOAE) in Pjvk−/− mice; type: in vivo, mouse; settings: antioxidant-treated Pjvk−/− pups, around P21
Protocol: Auditory tests were performed in an anechoic room. They consisted of distortion-product otoacoustic emissions (DPOAEs), auditory brainstem responses (ABRs), electrically-evoked brainstem responses (EEBRs), and cochlear potentials. Mice were anesthetized with an intraperitoneal injection of a ketamine and levomepromazin mixture (100 mg/kg: 5 mg/kg) and their core temperature was kept at 37° C. with the help of a servo-controlled heating pad. The DPOAE at frequency 2f1-f2 was recorded in response to two equal level primary tones, f1 and f2, with f2/f1=1.20 (CubeDis system, Mimosa Acoustics; ER10B microphone, Etymotic Res.). Frequency f2 was swept at 1/10th octave steps from 4 to 20 kHz, and DPOAE level was plotted against frequency f2 (primary tone levels increased from 20 to 70 dB SPL in 10 dB steps, then to 75 dB SPL). […] ABRs in response to calibrated short tone bursts in the 5-40 kHz range (repetition rate 17/s) were derived from the synchronous averaging of electroencephalograms recorded between subcutaneous stainless steel electrodes at the vertex and ipsilateral mastoid, with the help of a standard digital averaging system (CED1401+). […] Once ABR thresholds had been assessed, ABRs in response to 95 and 105 dB SPL tone bursts (100 averages) were collected for analysis of suprathreshold ABR waveforms, amplitudes and latencies. […]

[3] = system: Pjvk−/− mice; test: Auditory brainstem responses (ABR) in Pjvk−/− mice; type: in vivo, mouse; settings: for recovery of ABR wave I latency and ABR interwave I-IV: treated Pjvk−/− mice
Protocol: Auditory tests were performed in an anechoic room. They consisted of distortion-product otoacoustic emissions (DPOAEs), auditory brainstem responses (ABRs), electrically-evoked brainstem responses (EEBRs), and cochlear potentials. Mice were anesthetized with an intraperitoneal injection of a ketamine and levomepromazin mixture (100 mg/kg: 5 mg/kg) and their core temperature was kept at 37° C. with the help of a servo-controlled heating pad. The DPOAE at frequency 2f1-f2 was recorded in response to two equal level primary tones, f1 and f2, with f2/f1=1.20 (CubeDis system, Mimosa Acoustics; ER10B microphone, Etymotic Res.). Frequency f2 was swept at 1/10th octave steps from 4 to 20 kHz, and DPOAE level was plotted against frequency f2 (primary tone levels increased from 20 to 70 dB SPL in 10 dB steps, then to 75 dB SPL). DPOAE threshold was defined as the smallest primary level giving rise to a detectable DPOAE. ABRs in response to calibrated short tone bursts in the 5-40 kHz range (repetition rate 17/s) were derived from the synchronous averaging of electroencephalograms recorded between subcutaneous stainless steel electrodes at the vertex and ipsilateral mastoid, with the help of a standard digital averaging system (CED1401+). A hundred responses to the tone bursts were averaged except within 10 dB of the ABR threshold (defined as the smallest tone-burst level giving rise to at least one repeatable wave above noise background level, 150 nV in an anesthetized animal), for which 300 tone bursts were used. Once ABR thresholds had been assessed, ABRs in response to 95 and 105 dB SPL tone bursts (100 averages) were collected for analysis of suprathreshold ABR waveforms, amplitudes and latencies. Controlled sound exposure was applied with the same acoustic probe used for ABRs without moving the sound system, so that pre- and post-exposure ABRs shared the same calibration. Intense stimuli were the same tone-bursts used for ABR measurements at 105 dB SPL, presented 1,000 times at the same repetition rate of 17/s. […]
N-acetyl-L-cysteine (L-NAC; Sigma) or taurine (Sigma) was administrated to pregnant Pjvk^−/− mice in the drinking water. A daily dose of 1% L-NAC or 2% taurine was given to the mother during and after pregnancy, so that pups received them from birth on by feeding on the mother's milk. The treatment was continued until P21, and the auditory function of the treated Pjvk^−/− pups was tested at P21.

[4] = system: Pjvk−/− mice (auditory neurons); test: Electrically-evoked brainstem responses (EEBR) with controlled electrical stimulation in Pjvk−/− mice; type: in vivo, mouse; settings: for EEBR wave E IV amplitude / resistance to high-rate electrical stimulation: 200/s for 1 minute, treated Pjvk−/− mice
Description: Electrical stimulations of the eighth cranial nerve were delivered by a silver electrode placed in the round-window niche and excited by biphasic electrical impulses (neutral electrode in neck muscles; peak amplitude of electrical stimulus about 0.5 V; duration of the positive and negative phases 150 microseconds; adjustable repetition rate). EEBRs were extracted using the same setup as for ABRs (Roux et al., 2006), in response to 100 electrical impulses presented with alternating polarities (repetition rate 17 Hz). EEBR threshold was defined as the smallest electrical amplitude eliciting repeatable waves above noise background level (the same as for ABRs), labelled from E II to E IV in reference to their ABR equivalents II-IV. Controlled electrical stimulation was applied at 5 dB above EEBR detection threshold with a 200 Hz repetition rate. Occasionally, the silver electrode on the round window served for recording Compound Action Potentials (CAPs) in response to the same tone-bursts used for ABR studies (averages of 32 presentations, repetition rates 17/s), prior to EEBR data collection. These recordings served to check that CAP thresholds and ABR thresholds were within 2 dB of each other at all frequencies, and the exact position of ABR wave I could be ascertained form the larger wave N1, its equivalent on CAP recordings. This was particularly important in mice with abnormally small wave I to avoid incorrect identifications (when wave I was reduced to a very small flattened deflection resembling a summating potential, the slightly larger wave II might have been mistakenly labelled wave I on ABR recordings, while wave N1, even when small, kept its characteristic shape).
Intracochlear viral transduction was carried out as described by Akil et al. (2012). […]
Which cells are the targets of the pejvakin defect, and are they all hypervulnerable to sound exposure? […] Moreover, Electrically-Evoked Brainstem Responses (EEBR) to a direct electric stimulation of the auditory neurons, which test the response of the auditory pathway beyond the cochlea, was also analysed. […]

[5] = antioxidant-treated Pjvk−/− mice, P21

Structure (SMILES) | increase in number of peroxisomes after H2O2 treatment, Pjvk+/+ fibroblasts ([1]; 0.5 mM H2O2, Pjvk+/+ MEFs) [%] | number of peroxisomes after H2O2 treatment, Pjvk−/− fibroblasts ([1]; 0.5 mM H2O2, Pjvk−/− MEFs) | effect on OHCs (DPOAE) [2] | protective effect on IHCs and neurons ([3]; Pjvk−/− mice) | number of auditory neurons that responded to sound stimulation in synchrony ([3]; Pjvk−/− pups treated via mother's milk) | ABR threshold at 10 kHz ([3]; antioxidant via mother's drinking water/milk, Pjvk−/− pups tested around P21) [dB SPL] | ABR wave I amplitude (in words) [3, 5] | ABR wave I latency [3, 5] [ms] | amplitude of ABR wave I in response to 105 dB SPL [3, 5] [μV] | ABR interwave I-IV latency ([3]; antioxidant-treated Pjvk−/− pups, P21) [ms] | ABR thresholds (recovery) ([3]; antioxidant-treated vs untreated Pjvk−/− pups, P21, listed as NAC) | recovery of ABR wave I latency and ABR interwave I-IV ([3]; P21) | EEBR wave E IV amplitude / resistance to high-rate electrical stimulation [4] | EEBR wave E IV amplitude / resistance to high-rate electrical stimulation ([4]; listed as NAC) | recovery of neuronal function after high-rate electrical stimulation ([4]; 5 min after high-rate exposure)
OO [H2O2] | 46 | remained unchanged | – | – | – | – | – | – | – | – | – | – | – | – | –
CC(=O)N[C@@H](CS)C(=O)O [N-acetyl cysteine, N-acetyl-L-cysteine] | – | – | no beneficial effect on OHCs | moderate protective effect | restored | 72.2±9.3 | fell within the normative range | 1.55 ± 0.18 | 4.35±1.16 | 2.91 ± 0.32 | slight recovery; also recorded: slightly improved | no significant recovery | resisted to high-rate electric stimulation of auditory pathways better than untreated | remained unaffected | Full recovery of neuronal function
NCCS(=O)(=O)O [taurine] | – | – | no beneficial effect on OHCs | – | – | – | – | – | – | – | – | no significant recovery | – | – | –
